One compound from PMC3961306, “Comparison of the Cancer Gene Targeting and Biochemical Selectivities of All Targeted Kinase Inhibitors Approved for Clinical Use” (PLoS ONE, 2014) can be followed below.

Holding throughout (assay): Kinase profiling in a biochemical assay panel (mobility shift assays and ELISA), %-inhibition at 1 μM; selectivity entropy
A general note: In an ELISA, binding on a coated surface is turned into a signal by an enzyme label.

For experiment [1], the target named is panel of more than 300 wild-type and mutant kinases (313 kinase panel) (Homo sapiens, UniProt Q16816). The following applies: kinase PHKG1; 1 μM.
Experiment [2] concerns the target panel of more than 300 wild-type and mutant kinases (313 kinase panel) (Homo sapiens, UniProt P53667). The following applies: kinase LIMK1; compound at 1 μM.
Experiment [3] addresses panel of more than 300 wild-type and mutant kinases (313 kinase panel) (Homo sapiens, UniProt P54756). The following applies: kinase EPHA5; compound at 1 μM.
The target in experiment [4] is panel of more than 300 wild-type and mutant kinases (313 kinase panel) (Homo sapiens, UniProt P11309). The note with it: kinase PIM1; 1 μM.
The target in experiment [5] is panel of more than 300 wild-type and mutant kinases (313 kinase panel) (Homo sapiens, UniProt P50613). The note with it: kinase CDK7/CycH/MAT1; 1 μM compound.
The target in experiment [6] is panel of more than 300 wild-type and mutant kinases (313 kinase panel) (Homo sapiens, UniProt P41240). The note with it: kinase CSK; compound at 1 μM.
The target of experiment [7] is panel of more than 300 wild-type and mutant kinases (313 kinase panel) (Homo sapiens, UniProt P29597). The note with it: kinase TYK2; compound at 1 μM.
For experiment [8], the target named is panel of more than 300 wild-type and mutant kinases (313 kinase panel) (Homo sapiens, UniProt P19525). The following applies: kinase PKR; 1 μM.
For experiment [9], the target named is panel of more than 300 wild-type and mutant kinases (313 kinase panel) (Homo sapiens, UniProt P10721, V560G). The note with it: kinase KIT(V560G); compound at 1 μM.
For experiment [10], the target named is T1, panel of more than 300 wild-type and mutant kinases (313 kinase panel) (Homo sapiens, UniProt P52333).
T1 sequence (P52333 1-1124): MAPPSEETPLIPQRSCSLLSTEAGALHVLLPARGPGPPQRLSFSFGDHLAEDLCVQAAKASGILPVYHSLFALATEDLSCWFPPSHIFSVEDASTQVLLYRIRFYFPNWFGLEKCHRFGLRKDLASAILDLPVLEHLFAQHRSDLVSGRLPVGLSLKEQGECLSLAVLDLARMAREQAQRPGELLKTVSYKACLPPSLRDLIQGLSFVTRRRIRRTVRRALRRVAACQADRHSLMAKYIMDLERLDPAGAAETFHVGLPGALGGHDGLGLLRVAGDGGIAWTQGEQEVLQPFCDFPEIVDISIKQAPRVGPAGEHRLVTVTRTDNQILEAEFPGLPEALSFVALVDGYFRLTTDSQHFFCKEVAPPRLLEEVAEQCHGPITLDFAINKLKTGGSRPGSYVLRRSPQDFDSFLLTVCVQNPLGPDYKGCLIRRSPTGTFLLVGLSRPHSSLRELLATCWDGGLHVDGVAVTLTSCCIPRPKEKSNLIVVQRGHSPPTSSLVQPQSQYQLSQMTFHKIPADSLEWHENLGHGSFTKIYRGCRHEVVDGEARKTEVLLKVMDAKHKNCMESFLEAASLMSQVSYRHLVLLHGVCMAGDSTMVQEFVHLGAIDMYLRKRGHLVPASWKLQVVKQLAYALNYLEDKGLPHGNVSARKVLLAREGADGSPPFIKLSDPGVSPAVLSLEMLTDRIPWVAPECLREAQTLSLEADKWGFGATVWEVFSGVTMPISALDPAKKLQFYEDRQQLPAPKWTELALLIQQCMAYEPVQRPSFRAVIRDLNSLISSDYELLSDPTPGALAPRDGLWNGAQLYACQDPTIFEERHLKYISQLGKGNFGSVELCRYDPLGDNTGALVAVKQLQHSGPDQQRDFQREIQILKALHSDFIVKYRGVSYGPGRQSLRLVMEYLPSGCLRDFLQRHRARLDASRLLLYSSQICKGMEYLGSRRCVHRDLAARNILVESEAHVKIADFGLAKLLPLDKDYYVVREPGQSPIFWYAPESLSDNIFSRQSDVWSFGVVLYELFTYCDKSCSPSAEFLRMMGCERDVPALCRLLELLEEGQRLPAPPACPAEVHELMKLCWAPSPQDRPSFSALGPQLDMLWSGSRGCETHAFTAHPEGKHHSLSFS
The note with it: kinase JAK3; compound at 1 μM.

In experiment [11] the target is panel of more than 300 wild-type and mutant kinases (313 kinase panel) (Homo sapiens, UniProt P36894). The following applies: kinase BMPR1A; 1 μM compound.
The target in experiment [12] is panel of more than 300 wild-type and mutant kinases (313 kinase panel) (Homo sapiens, UniProt O75582). The following applies: kinase MSK1; 1 μM.
Experiment [13] concerns the target panel of more than 300 wild-type and mutant kinases (313 kinase panel) (Homo sapiens, UniProt Q8IY84). The following applies: kinase MGC42105; 1 μM.

The structures appear in SMILES notation.

panel of more than 300 wild-type and mutant kinases (313 kinase panel) (Homo sapiens, UniProt Q16816), sequence (Q16816 whole entry, change not shown): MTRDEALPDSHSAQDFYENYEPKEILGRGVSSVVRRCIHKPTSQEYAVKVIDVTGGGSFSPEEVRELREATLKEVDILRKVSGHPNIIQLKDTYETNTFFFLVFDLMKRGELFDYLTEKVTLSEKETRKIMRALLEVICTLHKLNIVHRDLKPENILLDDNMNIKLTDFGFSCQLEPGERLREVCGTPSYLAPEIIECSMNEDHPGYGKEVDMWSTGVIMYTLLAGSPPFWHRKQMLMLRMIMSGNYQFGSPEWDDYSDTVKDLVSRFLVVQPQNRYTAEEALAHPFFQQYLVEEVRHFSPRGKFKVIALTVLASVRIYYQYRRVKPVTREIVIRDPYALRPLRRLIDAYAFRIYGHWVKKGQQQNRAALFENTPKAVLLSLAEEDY
panel of more than 300 wild-type and mutant kinases (313 kinase panel) (Homo sapiens, UniProt P29597), sequence (P29597 whole entry, change not shown): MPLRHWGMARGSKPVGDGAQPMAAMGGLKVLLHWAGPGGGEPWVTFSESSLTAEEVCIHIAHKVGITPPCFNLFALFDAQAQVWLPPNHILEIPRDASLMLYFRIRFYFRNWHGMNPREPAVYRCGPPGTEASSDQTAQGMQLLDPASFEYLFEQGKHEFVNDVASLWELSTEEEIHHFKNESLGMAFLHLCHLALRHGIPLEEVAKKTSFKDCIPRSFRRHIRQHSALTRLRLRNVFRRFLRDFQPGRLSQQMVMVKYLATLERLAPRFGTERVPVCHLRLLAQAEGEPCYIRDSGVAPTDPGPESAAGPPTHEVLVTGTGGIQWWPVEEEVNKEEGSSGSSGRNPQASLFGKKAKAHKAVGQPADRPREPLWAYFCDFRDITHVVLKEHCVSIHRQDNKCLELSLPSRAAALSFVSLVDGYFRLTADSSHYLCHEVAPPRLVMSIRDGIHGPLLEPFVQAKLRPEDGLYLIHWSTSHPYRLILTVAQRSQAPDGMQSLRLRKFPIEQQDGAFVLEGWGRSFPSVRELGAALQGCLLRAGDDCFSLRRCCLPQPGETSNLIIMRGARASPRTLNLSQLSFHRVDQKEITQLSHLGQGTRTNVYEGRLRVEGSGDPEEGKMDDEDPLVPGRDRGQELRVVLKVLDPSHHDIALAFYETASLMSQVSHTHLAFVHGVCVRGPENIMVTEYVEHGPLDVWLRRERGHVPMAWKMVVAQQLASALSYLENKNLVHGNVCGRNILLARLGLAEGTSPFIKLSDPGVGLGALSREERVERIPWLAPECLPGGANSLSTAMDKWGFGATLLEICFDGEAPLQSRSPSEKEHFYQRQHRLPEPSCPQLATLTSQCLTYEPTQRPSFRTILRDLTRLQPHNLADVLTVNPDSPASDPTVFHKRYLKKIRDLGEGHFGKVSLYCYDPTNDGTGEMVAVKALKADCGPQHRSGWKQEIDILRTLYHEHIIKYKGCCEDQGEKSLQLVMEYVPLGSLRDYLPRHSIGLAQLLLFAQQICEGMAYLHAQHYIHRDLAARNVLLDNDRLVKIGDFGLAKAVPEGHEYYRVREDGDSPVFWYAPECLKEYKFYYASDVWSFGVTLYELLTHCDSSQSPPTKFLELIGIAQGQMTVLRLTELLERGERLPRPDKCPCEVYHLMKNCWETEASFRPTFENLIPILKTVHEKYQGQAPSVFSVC
panel of more than 300 wild-type and mutant kinases (313 kinase panel) (Homo sapiens, UniProt P10721, V560G), sequence (P10721 26-976 V560G): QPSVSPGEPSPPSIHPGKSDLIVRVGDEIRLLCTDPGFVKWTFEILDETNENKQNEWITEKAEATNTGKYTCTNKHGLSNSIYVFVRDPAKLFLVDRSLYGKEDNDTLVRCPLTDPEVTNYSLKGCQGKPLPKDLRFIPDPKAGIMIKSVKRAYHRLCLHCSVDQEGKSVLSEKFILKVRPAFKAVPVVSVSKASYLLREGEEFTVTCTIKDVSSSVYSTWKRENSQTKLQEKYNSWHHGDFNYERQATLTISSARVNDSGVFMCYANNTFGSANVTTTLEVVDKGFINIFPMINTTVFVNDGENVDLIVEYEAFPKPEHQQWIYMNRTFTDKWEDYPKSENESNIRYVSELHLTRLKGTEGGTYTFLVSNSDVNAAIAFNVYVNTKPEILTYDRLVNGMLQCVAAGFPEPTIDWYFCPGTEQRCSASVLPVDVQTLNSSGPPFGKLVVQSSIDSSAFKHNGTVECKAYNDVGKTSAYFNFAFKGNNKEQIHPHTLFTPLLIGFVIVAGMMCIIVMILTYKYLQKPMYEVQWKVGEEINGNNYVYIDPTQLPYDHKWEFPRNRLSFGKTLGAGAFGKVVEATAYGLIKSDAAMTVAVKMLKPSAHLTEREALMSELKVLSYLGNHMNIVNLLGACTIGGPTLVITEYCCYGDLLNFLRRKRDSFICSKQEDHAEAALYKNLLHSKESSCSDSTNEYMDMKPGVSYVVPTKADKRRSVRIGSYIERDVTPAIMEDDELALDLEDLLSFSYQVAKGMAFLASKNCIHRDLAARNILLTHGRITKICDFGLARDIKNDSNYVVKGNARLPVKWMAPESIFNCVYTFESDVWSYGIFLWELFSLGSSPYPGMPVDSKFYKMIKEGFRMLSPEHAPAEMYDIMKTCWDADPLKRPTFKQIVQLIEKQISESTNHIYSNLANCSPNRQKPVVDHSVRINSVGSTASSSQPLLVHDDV
panel of more than 300 wild-type and mutant kinases (313 kinase panel) (Homo sapiens, UniProt P50613), sequence (P50613 whole entry, change not shown): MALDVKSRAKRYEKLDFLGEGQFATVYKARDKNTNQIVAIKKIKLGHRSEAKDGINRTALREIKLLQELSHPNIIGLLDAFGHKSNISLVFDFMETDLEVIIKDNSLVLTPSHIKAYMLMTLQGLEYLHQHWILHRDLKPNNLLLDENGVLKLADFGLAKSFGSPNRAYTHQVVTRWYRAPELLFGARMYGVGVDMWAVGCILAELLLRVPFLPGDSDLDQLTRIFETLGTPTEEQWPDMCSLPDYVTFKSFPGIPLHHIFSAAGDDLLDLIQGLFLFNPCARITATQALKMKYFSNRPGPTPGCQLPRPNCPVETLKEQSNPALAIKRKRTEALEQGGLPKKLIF
panel of more than 300 wild-type and mutant kinases (313 kinase panel) (Homo sapiens, UniProt P41240), sequence (P41240 whole entry, change not shown): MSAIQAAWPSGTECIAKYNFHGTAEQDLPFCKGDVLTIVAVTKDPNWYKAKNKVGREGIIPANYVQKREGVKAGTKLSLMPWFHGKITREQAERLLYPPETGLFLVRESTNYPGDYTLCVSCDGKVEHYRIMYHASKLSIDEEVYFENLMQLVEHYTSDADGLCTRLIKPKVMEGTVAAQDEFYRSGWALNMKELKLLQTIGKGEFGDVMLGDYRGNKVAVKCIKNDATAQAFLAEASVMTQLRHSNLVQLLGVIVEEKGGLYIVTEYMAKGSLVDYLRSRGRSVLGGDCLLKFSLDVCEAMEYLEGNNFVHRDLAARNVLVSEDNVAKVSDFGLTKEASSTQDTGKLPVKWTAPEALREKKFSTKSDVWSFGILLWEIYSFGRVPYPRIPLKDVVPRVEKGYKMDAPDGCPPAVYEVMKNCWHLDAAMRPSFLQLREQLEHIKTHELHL

On to `CCCS(=O)(=O)Nc1ccc(F)c(C(=O)c2c[nH]c3ncc(-c4ccc(Cl)cc4)cc23)c1F` [vemurafenib], for which the “%-inhibition of PHKG1” value in [1] is recorded as -0.913%. Further, the “%-inhibition of LIMK1” value in experiment [2] is on record as 45%. For the same compound, in experiment [3], the “%-inhibition of EPHA5” value came out at 14%. Besides, the “%-inhibition of PIM1” value in experiment [4] is -3.41%. The “%-inhibition, CDK7/CycH/MAT1” value in experiment [5] was determined as 0.137%. Besides, the “%-inhibition of CSK” value in experiment [6] is 76%. Besides, the “%-inhibition of TYK2” value in experiment [7] was determined as 6%. Moreover, the “%-inhibition of PKR” value in experiment [8] is listed as -0.765%. Besides, in experiment [9], the “%-inhibition of KIT(V560G)” value was 32%. Also, in [10], the “%-inhibition of JAK3” value was determined as 10%. For the same compound, the “%-inhibition, BMPR1A” value in experiment [11] worked out at 9%. In addition, the “%-inhibition of MSK1” value in experiment [12] stood at 0.256%. Moreover, the “%-inhibition of MGC42105” value in [13] is listed as -8%.
